Results on 1 compound are retold here after patent EP4635954A1, “INDUCER FOR INDUCING MESENCHYMAL-EPITHELIAL TRANSITION AND REPROGRAMMING” (Iregene Therapeutics Co., Ltd, priority 2022, dated 2024).

The target in this assay is miR-145. The assay is described as follows: Isothermal titration calorimetry (ITC), Nano-ITC. It counts as binding. The conditions noted are these: Multiple Sites model, 50 µM miR-145 in cell, 500 µM ligand in syringe. The text has this: Isothermal titration calorimetry (ITC) operates based on the principle of power compensation and allows accurate determination of the enthalpy change associated with molecular interactions across a broad concentration range using a single titration experiment. It measures the heat change upon binding and provides a complete thermodynamic profile of nucleic acid-ligand interactions. Quantitative thermodynamic characterization of the complex is essential for understanding the molecular basis of the interaction between the microRNA miR-145 and the small molecule compound. In this invention, the Nano-ITC calorimeter from Waters Corporation was used to validate in vitro the interaction between nucleic acid and small molecule compounds. The experimental procedure involved placing 300 µL of singlestranded miR-145 solution at a concentration of 50 µM into a temperature-controlled sample cell, which was thermally coupled via a thermocouple circuit to a reference cell containing an equal volume of deionized water. As an example, the small molecule A-3-6 was prepared at a concentration of 500 µM and a volume of 50 µL, and loaded into the injection syringe as the ligand. The heat change in the sample cell was measured and balanced against the reference cell, appearing as either endothermic or exothermic peaks. […]
For orientation: ITC needs no label: the signal is the heat of the interaction.

Usually Kd stands for a measure of binding affinity in units of concentration.

In the case of `O=C(Cc1ccccc1)Nc1cc2cc[nH]c2cn1` [Compound A-3-6, 2-Phenyl-N-(1H-pyrrolo[2,3-c]pyridin-5-yl)acetamide], the Kd runs as follows: (site with nSite 1.8) 7.54 nM; (site with nSite 3) 70.2 nM.
